Measurements as given in publication PMC6020091 (Chemistry Central Journal, 2018).

Legend:
[1] = target: T1, AChE (acetylcholinesterase) (Electrophorus electricus, UniProt O42275); test: colorimetric hydroxamic acid/FeCl3 assay of remaining ACh (Bonting and Featherstone), non-linear regression; type: biochemical
[2] = target: T1, AChE (acetylcholinesterase); test: colorimetric hydroxamic acid/FeCl3 assay of remaining ACh (Bonting and Featherstone), enzyme kinetics with Lineweaver-Burk plot; type: biochemical

T1 sequence (O42275 24-633 limits assumed): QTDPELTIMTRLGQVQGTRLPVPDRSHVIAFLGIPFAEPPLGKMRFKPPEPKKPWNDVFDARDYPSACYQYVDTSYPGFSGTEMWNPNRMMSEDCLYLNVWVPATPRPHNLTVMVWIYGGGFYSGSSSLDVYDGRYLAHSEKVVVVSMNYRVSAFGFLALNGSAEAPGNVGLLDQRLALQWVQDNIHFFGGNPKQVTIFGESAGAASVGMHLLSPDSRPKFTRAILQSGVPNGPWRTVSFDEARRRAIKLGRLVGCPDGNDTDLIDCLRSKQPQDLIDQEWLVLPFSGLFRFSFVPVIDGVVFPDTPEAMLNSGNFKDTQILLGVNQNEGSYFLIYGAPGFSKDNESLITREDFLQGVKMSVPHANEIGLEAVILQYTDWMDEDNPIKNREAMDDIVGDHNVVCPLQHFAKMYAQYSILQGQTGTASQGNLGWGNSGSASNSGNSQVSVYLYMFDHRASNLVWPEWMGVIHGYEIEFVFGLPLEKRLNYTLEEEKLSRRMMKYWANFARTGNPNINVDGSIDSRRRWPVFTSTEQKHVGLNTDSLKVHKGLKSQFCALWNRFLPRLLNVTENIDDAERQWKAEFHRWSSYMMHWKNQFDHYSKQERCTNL

SMILES | Ki [1] [µM] | Ki [2] [µM]
CN(C)C(=O)Oc1cccc([N+](C)(C)C)c1 [neostigmine] | 93 to 157 | 
COc1ccc(CCN2C(=O)c3ccccc3C2=O)cc1OC [compound 1] |  | 330 to 930
